pIC50: −log10 of the molar value. Like-named read-outs stand apart in the source and are kept apart here.
What was measured:
[1] = molecular target: T1, menin (Homo sapiens, UniProt O00255, T541A); assay: Menin/MLL homogenous time-resolved fluorescence (HTRF) assay; assay type: binding
T1 construct: Menin (a.a. 1-610-6×his tag)
T1 sequence (O00255 with tags, fused parts or gaps T541A): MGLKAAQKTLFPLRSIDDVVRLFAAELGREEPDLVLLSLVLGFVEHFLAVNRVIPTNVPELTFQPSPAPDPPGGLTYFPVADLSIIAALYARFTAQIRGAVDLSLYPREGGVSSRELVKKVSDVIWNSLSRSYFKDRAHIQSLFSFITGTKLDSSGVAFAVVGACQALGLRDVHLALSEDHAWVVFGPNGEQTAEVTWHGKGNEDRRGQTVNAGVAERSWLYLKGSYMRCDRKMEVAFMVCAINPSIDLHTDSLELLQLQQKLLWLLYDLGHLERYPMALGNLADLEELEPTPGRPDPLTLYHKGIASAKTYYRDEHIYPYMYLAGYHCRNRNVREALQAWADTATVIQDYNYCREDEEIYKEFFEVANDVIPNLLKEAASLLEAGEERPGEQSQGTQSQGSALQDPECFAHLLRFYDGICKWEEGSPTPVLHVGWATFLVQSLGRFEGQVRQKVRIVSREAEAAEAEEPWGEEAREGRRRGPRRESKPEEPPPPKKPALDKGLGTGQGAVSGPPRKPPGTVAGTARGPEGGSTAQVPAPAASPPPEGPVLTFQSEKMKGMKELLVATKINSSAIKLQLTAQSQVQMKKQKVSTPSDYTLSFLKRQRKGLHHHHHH
Outline: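 Terbium-labeled menin (aa 1-610, His-tagged; […]) preincubated 5 min with compound, then 75 nM FITC-MBM1 peptide for 15 min, ambient, Tris pH 7.5, 0.5% DMSO. HTRF 520/490 ratio; 11-point 3-fold titration; IC50 from % inhibition fit.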

[2] = tested on: MV-4-11; assay: Proliferation assay A (spheroid assay) MV-4-11; assay type: cell-based, human; conditions: MV-4-11 cells, 8 d, AUC of confluence against time, absolute IC50, read-out: (3a) Spheroid assay MV-4-11 (IC50(μM)) Assay A
Outline: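 Spheroid growth in ultra-low-attachment round-bottom wells (1,500 MV-4-11, 300 MOLM14 or 750 K562 cells), compound titration at 0.3% DMSO, 8 d at 37° C. Confluence imaged every 4 h; AUC from t=0 baseline expressed as % of DMSO control and fitted for absolute IC50.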

[3] = tested on: MOLM14; assay: Proliferation assay A (spheroid assay) MOLM14; assay type: cell-based, human; conditions: MOLM14 cells, 8 d, AUC of confluence against time, absolute IC50, read-out: (3a) Spheroid assay MOLM14 (IC50(μM)) Assay A
Experimental: 3a) Proliferation Assay A
(§1) The anti-proliferative effect of menin/MLL protein/protein interaction inhibitor test compounds was assessed in human leukemia cell lines. The cell lines MV-4-11 and MOLM14 harbor MILL translocations and express the MILL fusion proteins MLL-AF4 and MLL-AF9, respectively, as well as the wildtype protein from the second allele. […] K562 was used as a control cell line containing two MLL wildtype alleles in order to exclude compounds that display general cytotoxic effects.
(§2) MV-4-11 and MOLM14 were cultured in RPMI-1640 (Sigma Aldrich) supplemented with 10% fetal bovine serum (HyClone), 2 mM L-glutamine (Sigma Aldrich) and 50 μg/ml gentamycin (Gibco). K562 were propagated in RPMI-1640 (Sigma Aldrich) supplemented with 20% fetal bovine serum (HyClone), 2 mM L-glutamine (Sigma Aldrich) and 50 μg/ml gentamycin (Gibco).
(§3) In order to assess the anti-proliferative effects, 1,500 MV-4-11, 300 MOLM14 or 750 K562 cells were seeded in 200 μl media per well in 96-well round bottom, ultra-low attachment plates (Costar, catalogue number 7007). Cell seeding numbers were chosen based on growth curves to ensure linear growth throughout the experiment. Test compounds were added at different concentrations and the DMSO content was normalized to 0.3%. Cells were incubated for 8 d at 37° C. and 5% CO2. Spheroid like growth was monitored in real-time by live-cell imaging (IncuCyteZOOM, Essenbio, 4× objective) acquiring one image every four hours for 8 d. Confluence (%) as a measure of spheroid size was determined using an integrated analysis tool.
In order to determine the cumulative effect of the test compounds over time, the area under the curve (AUC) in a plot of confluence against time was calculated. Confluence at the beginning of the experiment (t=0) was used as baseline for the AUC calculation.
Absolute IC50 values were calculated according to the following procedure: % Control=(AUC sample/AUC control)*100
AUC control mean AUC of control values (cells without compound/DMSO as vehicle control)
A non-linear curve fit was applied using the least squares (ordinary) fit method to the plot of % control versus compound concentration. Based on this, the absolute IC50 value (half maximal inhibitory concentration of the test compound causing an anti-proliferative effect of 50% relative to the vehicle control) was calculated.

[4] = tested on: MOLM14; assay: Proliferation assay B (spheroid assay) MOLM14; assay type: cell-based, human; conditions: Homo sapiens, MOLM-14, 192 h, MOLM14 cells, confluence at day 8, absolute IC50; read-out: (3b) Spheroid assay MOLM14 (IC50(μM)) Assay B
Outline: (§4)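 Leukemia cells grown as spheroids in ultra-low-attachment round-bottom wells with compound at 0.3% DMSO for 8 d at 37 °C. Confluence imaged at day 8 as spheroid size, normalized between DMSO and 1 μM staurosporine controls; absolute IC50 from sigmoidal fit with bounds fixed at 0 and 100%.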

[5] = tested on: MV-4-11; assay: Proliferation assay B (spheroid assay) MV-4-11; assay type: cell-based, human; conditions: Homo sapiens, MV4-11, 192 h, MV-4-11 cells, confluence at day 8, absolute IC50; read-out: (3b) Spheroid assay MV-4--11 (IC50(μM)) Assay B
Outline: as §4

[6] = tested on: K562; assay: Proliferation assay B (spheroid assay) K562 control cell line; assay type: cell-based; conditions: Homo sapiens, 192 h; K562 cells (MLL wildtype control), confluence at day 8; read-out: (3b) Spheroid assay K562 Assay B
Experimental: 3b) Proliferation Assay B
as §1, §2
as §3, with “MOLM14 cells” for “MOLM14”, “measured” for “monitored”, “images at day 8.” for “one image every four hours for 8 d.”
In order to determine the effect of the test compounds over time, the confluence in each well as a measure of spheroid size, was calculated. Confluence […] at the beginning of the experiment (t=0) was used as baseline for the calculation.
Absolute IC50 values were calculated as percent change in confluence as follows:
LC=Low Control: cells treated with 1 μM of the cytotoxic agent staurosporin
HC=High Control: Mean confluence (%) (DMSO treated cells) % Effect=100−(100*(Sample−LC)/(HC−LC))
To determine the IC50 a curve is fitted to the plot of % Effect vs Log 10 compound concentration using a sigmoidal fit with a variable slope and fixing the maximum to 100% and the minimum to 0%.

[7] = location 2, read-out: (2) location 2 Menin HTRF assay (IC50 (nM))
[8] = location 1, read-out: (2) location 1 Menin HTRF assay (IC50 (nM))

Row | IC50 [1, 7] [nM] | IC50 ([2]; Homo sapiens, MV4-11, 192 h) [µM] | IC50 ([3]; Homo sapiens, MOLM-14, 192 h) [µM] | IC50 [1, 8] [nM] | IC50 [2] [µM] | IC50 [3] [µM] | IC50 [4] [µM] | IC50 [5] [µM] | pIC50 [6] | Compound
1 | 62.7 | 1.11 | 1.78 | – | – | – | – | – | – | CC(C)(N[C@H]1CCC2(C1)CN(c1ncnc3sc(CC(F)(F)F)cc13)C2)c1ccccc1 (single isomer, unassigned) [Compound 281]
2 | 37.5 | 3.67 | > 3.75 | – | – | – | – | – | – | FC(F)(F)Cc1cc2c(N3CCC4(CC(Nc5ccccc5)C4)C3)ncnc2s1 (single isomer, unassigned) [Compound 149]
3 | 10 | 0.75 | 2.39 | 75.7 | – | – | – | – | – | FC(F)(F)Cc1cc2c(N3CC[C@@]4(CC[C@@H](NCc5ccccc5)C4)C3)ncnc2s1 (single isomer, unassigned) [Compound 3]
4 | 16.2 | 2.65 | > 3.75 | – | – | – | – | – | – | O=c1[nH]c2cc(NC3CCC4(C3)CN(c3ncnc5sc(CC(F)(F)F)cc35)C4)ccc2o1 (stereo not shown) [Compound 285]
5 | 52.4 | 2.13 | 2.9 | – | – | – | – | – | – | CNc1nc(N2CC3(CCC(NCc4ccc5[nH]c(=O)[nH]c5c4)C3)C2)c2cc(CC(F)(F)F)sc2n1 (stereo not shown) [Compound 120]
6 | 4.5 | 0.28 | 0.85 | – | – | – | – | – | – | COc1nc(N2CCC3(CC(NCc4ccccc4)C3)C2)c2cc(CC(F)(F)F)sc2n1 (stereo not shown) [Compound 59]
7 | 1.6 | – | – | – | 0.24 | 3.24 | 2.26 | – | – | O=c1[nH]c2ccc(CNC3CCC4(C3)CN(c3ncnc5sc(CC(F)(F)F)cc35)C4)cc2[nH]1 (single isomer, unassigned) [Compound 109]
8 | 22.8 | > 3.75 | > 3.75 | – | – | – | – | – | – | N#CCc1ccc(NC2CCC3(C2)CN(c2ncnc4sc(CC(F)(F)F)cc24)C3)cc1 (racemic) [Compound 278]
9 | 43.8 | 1.24 | 0.69 | – | – | – | – | – | – | CC(NC1CCC2(C1)CN(c1ncnc3sc(CC(F)(F)F)cc13)C2)c1ccccc1 (stereo not shown) [Compound 42]
10 | – | 0.81 | 2.46 | 61.3 | – | – | – | – | – | CC(C)NC1CC2(CCN(c3ncnc4sc(CC(F)(F)F)cc34)C2)C1 (stereo not shown) [Compound 51]
11 | 3.1 | – | – | – | 1.05 | 3.38 | 2.44 | – | – | N#CCc1ccc(NC2CC3(CCN(c4ncnc5sc(CC(F)(F)F)cc45)C3)C2)cc1 (single isomer, unassigned) [Compound 307]
12 | 11.3 | 2.08 | 2.61 | – | – | – | – | – | – | N#CCc1ccc(NC2CC3(CCN(c4ncnc5sc(CC(F)(F)F)cc45)C3)C2)cc1 (stereo not shown) [Compound 44]
13 | 90.9 | 3.13 | 2.64 | – | – | – | – | – | – | CC(C)N(C)CC1CC2(CCN(c3ncnc4sc(CC(F)(F)F)cc34)C2)C1 (stereo not shown) [Compound 40]
14 | – | – | – | – | – | – | 1.57 | 0.35 | 5.14 | FC(F)(F)Cc1cc2c(N3CCC4(CC(Nc5ccc(-c6nnc[nH]6)cc5)C4)C3)ncnc2s1 (stereo not shown) [Compound 370]
15 | 23.2 | 3.2 | 3.46 | – | – | – | – | – | – | COc1nc(N2CCC3(CC(NCc4ccccc4)C3)C2)c2cc(CC(F)(F)F)sc2n1 (single isomer, unassigned) [Compound 60]
16 | 47.9 | 2.15 | 2.28 | – | – | – | – | – | – | Cc1nc(N2CC3(CCC(NCc4ccc5[nH]c(=O)[nH]c5c4)C3)C2)c2cc(CC(F)(F)F)sc2n1 (stereo not shown) [Compound 119]
17 | 2.6 | 0.25 | 1.3 | – | – | – | 1.36 | – | – | CNC(=O)c1ccc(NC2CCC3(C2)CN(c2ncnc4sc(CC(F)(F)F)cc24)C3)cc1 (single isomer, unassigned) [Compound 98]
18 | – | – | – | – | – | – | 0.3 | 0.08 | 5.19 | O=C(NCC(F)(F)F)c1ccc(NC2CC3(CCN(c4ncnc5sc(CC(F)(F)F)cc45)C3)C2)cc1 (stereo not shown) [Compound 371]
19 | 27.1 | 3.83 | > 3.75 | – | – | – | – | – | – | FC(F)(F)Cc1cc2c(N3CCC4(CC(Nc5ccc6cc(C(F)(F)F)[nH]c6c5)C4)C3)ncnc2s1 (mixture of isomers) [Compound 314]
20 | – | 0.55 | 1.84 | 23.8 | – | – | – | – | – | FC(F)(F)Cc1cc2c(N3CC4(CC(NCc5ccccc5)C4)C3)ncnc2s1 [Compound 428]
21 | 2 | 0.03 | 0.19 | – | – | – | – | – | – | O=c1[nH]c2cc(CNC3CCC4(C3)CN(c3ncnc5sc(CC(F)(F)F)cc35)C4)ccc2o1 (stereo not shown) [Compound 16]
22 | 8.4 | 0.9 | 3.05 | – | – | – | – | – | – | N#CC1(c2ccc(NC3CC4(CCN(c5ncnc6sc(CC(F)(F)F)cc56)C4)C3)cc2)CC1 (single isomer, unassigned) [Compound 172]

From patent US11396517B1, “Exo-aza spiro inhibitors of menin-MLL interaction” (Janssen Pharmaceutica NV, priority 2017, dated 2022)
